Reference: PubChem BioAssay (NCI)
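48-hour exposure; five concentrations; linearly interpolated endpoints. GI50 is the concentration that inhibits growth by half. TGI marks complete inhibition of growth.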

Each compound was assayed on SN12C renal (assay: DTP human tumour cell line panel, 48 h).
Compound `COc1ccc(C(=O)COc2cccc(/C=C3\COc4ccc5ccccc5c4C3=O)c2)cc1` has a GI50 of 4.46 µM and a TGI of over 100 µM.
With `COc1cc2c(cc1C)NC(=O)/C2=C/c1cccnc1` the TGI was 29.5 µM.
`NCCCC[C@@H]1NC(=O)[C@H]2CCCN2C(=O)[C@H](Cc2ccccc2)NC(=O)[C@H](Cc2ccccc2)CNC1=O` gave a GI50 of over 100 µM and a TGI of over 100 µM.

These compounds were tested on RPMI-8226 leukemia (assay: DTP human tumour cell line panel, 48 h).
Compound `COc1ccc(C(=O)COc2cccc(/C=C3\COc4ccc5ccccc5c4C3=O)c2)cc1` has a GI50 of 1150 nM and a TGI of 3.94 µM.
In the case of `COc1cc2c(cc1C)NC(=O)/C2=C/c1cccnc1`, the GI50 is reported as 12700 nM and the TGI is reported as 79.1 µM.
In the case of `NCCCC[C@@H]1NC(=O)[C@H]2CCCN2C(=O)[C@H](Cc2ccccc2)NC(=O)[C@H](Cc2ccccc2)CNC1=O`, the GI50 is reported as over 100000 nM and the TGI is reported as over 100 µM.
In the case of `O=C1c2ccccc2C(=O)C2NC(CCCCCSSCCCCCC3=NC4C(=O)c5ccccc5C(=O)C4N3)=NC12` (configuration not stated), the TGI is reported as over 100 µM.
With `CN(C)CCOc1ccc(/C(=C(/CCCCCCCCCC[P+](c2ccccc2)(c2ccccc2)c2ccccc2)c2ccccc2)c2ccccc2)cc1` the GI50 was 27.3 nM and the TGI was 0.172 µM.

What follows are compounds tested on T-47D breast (assay: DTP human tumour cell line panel, 48 h).
Compound `COc1ccc(C(=O)COc2cccc(/C=C3\COc4ccc5ccccc5c4C3=O)c2)cc1` has a GI50 of 3.88 µM and a TGI of over 100 µM.
For `COc1cc2c(cc1C)NC(=O)/C2=C/c1cccnc1`, the TGI was 8.13 µM.
`NCCCC[C@@H]1NC(=O)[C@H]2CCCN2C(=O)[C@H](Cc2ccccc2)NC(=O)[C@H](Cc2ccccc2)CNC1=O` showed a GI50 of over 100 µM and a TGI of over 100 µM.
Compound `O=C1c2ccccc2C(=O)C2NC(CCCCCSSCCCCCC3=NC4C(=O)c5ccccc5C(=O)C4N3)=NC12` (configuration not stated) has a TGI of over 100 µM.

The compounds below were run on UO-31 renal (assay: DTP human tumour cell line panel, 48 h).
`COc1ccc(C(=O)COc2cccc(/C=C3\COc4ccc5ccccc5c4C3=O)c2)cc1` showed a GI50 of 20.4 µM and a TGI of over 100 µM.
In the case of `COc1cc2c(cc1C)NC(=O)/C2=C/c1cccnc1`, the TGI is reported as 26.2 µM.
With `NCCCC[C@@H]1NC(=O)[C@H]2CCCN2C(=O)[C@H](Cc2ccccc2)NC(=O)[C@H](Cc2ccccc2)CNC1=O` the GI50 was over 100 µM and the TGI was over 100 µM.
For `O=C1c2ccccc2C(=O)C2NC(CCCCCSSCCCCCC3=NC4C(=O)c5ccccc5C(=O)C4N3)=NC12` (configuration not stated), the TGI was over 100 µM.

These compounds were tested on HOP-92 NSCLC (assay: DTP human tumour cell line panel, 48 h).
Work on `COc1ccc(C(=O)COc2cccc(/C=C3\COc4ccc5ccccc5c4C3=O)c2)cc1` yielded a GI50 of 786 nM and a TGI of 8.14 µM.
With `COc1cc2c(cc1C)NC(=O)/C2=C/c1cccnc1` the TGI was 41.9 µM.
For `NCCCC[C@@H]1NC(=O)[C@H]2CCCN2C(=O)[C@H](Cc2ccccc2)NC(=O)[C@H](Cc2ccccc2)CNC1=O`, the GI50 was 44100 nM and the TGI was over 100 µM.
`O=C1c2ccccc2C(=O)C2NC(CCCCCSSCCCCCC3=NC4C(=O)c5ccccc5C(=O)C4N3)=NC12` (configuration not stated) was tested, and the TGI was 69.2 µM.
In the case of `CN(C)CCOc1ccc(/C(=C(/CCCCCCCCCC[P+](c2ccccc2)(c2ccccc2)c2ccccc2)c2ccccc2)c2ccccc2)cc1`, the GI50 is reported as 29.7 nM and the TGI is reported as 0.208 µM.

The compounds below were run on HCT-15 colon (assay: DTP human tumour cell line panel, 48 h).
Compound `COc1ccc(C(=O)COc2cccc(/C=C3\COc4ccc5ccccc5c4C3=O)c2)cc1` has a GI50 of 7.59 µM and a TGI of over 100 µM.
`COc1cc2c(cc1C)NC(=O)/C2=C/c1cccnc1` showed a TGI of over 78 µM.
Compound `NCCCC[C@@H]1NC(=O)[C@H]2CCCN2C(=O)[C@H](Cc2ccccc2)NC(=O)[C@H](Cc2ccccc2)CNC1=O` has a GI50 of over 100 µM and a TGI of over 100 µM.
`O=C1c2ccccc2C(=O)C2NC(CCCCCSSCCCCCC3=NC4C(=O)c5ccccc5C(=O)C4N3)=NC12` (configuration not stated) gave a TGI of over 100 µM.

The compounds below were run on OVCAR-5 ovarian (assay: DTP human tumour cell line panel, 48 h).
`COc1ccc(C(=O)COc2cccc(/C=C3\COc4ccc5ccccc5c4C3=O)c2)cc1` gave a GI50 of 12.9 µM and a TGI of over 100 µM.
Compound `COc1cc2c(cc1C)NC(=O)/C2=C/c1cccnc1` has a TGI of 27.9 µM.
With `NCCCC[C@@H]1NC(=O)[C@H]2CCCN2C(=O)[C@H](Cc2ccccc2)NC(=O)[C@H](Cc2ccccc2)CNC1=O` the GI50 was over 100 µM and the TGI was over 100 µM.
Compound `O=C1c2ccccc2C(=O)C2NC(CCCCCSSCCCCCC3=NC4C(=O)c5ccccc5C(=O)C4N3)=NC12` (configuration not stated) has a TGI of over 100 µM.

Each compound was assayed on A549 NSCLC (assay: DTP human tumour cell line panel, 48 h).
Compound `COc1ccc(C(=O)COc2cccc(/C=C3\COc4ccc5ccccc5c4C3=O)c2)cc1` has a GI50 of over 100 µM and a TGI of over 100 µM.
`COc1cc2c(cc1C)NC(=O)/C2=C/c1cccnc1` gave a TGI of over 55.3 µM.
`NCCCC[C@@H]1NC(=O)[C@H]2CCCN2C(=O)[C@H](Cc2ccccc2)NC(=O)[C@H](Cc2ccccc2)CNC1=O` was tested, and the GI50 was over 100 µM and the TGI was over 100 µM.
Compound `CN(C)CCOc1ccc(/C(=C(/CCCCCCCCCC[P+](c2ccccc2)(c2ccccc2)c2ccccc2)c2ccccc2)c2ccccc2)cc1` has a GI50 of 0.0772 µM and a TGI of 1.66 µM.

What follows are compounds tested on PC-3 prostate (assay: DTP human tumour cell line panel, 48 h).
With `COc1ccc(C(=O)COc2cccc(/C=C3\COc4ccc5ccccc5c4C3=O)c2)cc1` the GI50 was 3.5 µM and the TGI was over 100 µM.
For `COc1cc2c(cc1C)NC(=O)/C2=C/c1cccnc1`, the TGI was over 64.6 µM.
`NCCCC[C@@H]1NC(=O)[C@H]2CCCN2C(=O)[C@H](Cc2ccccc2)NC(=O)[C@H](Cc2ccccc2)CNC1=O` gave a GI50 of over 100 µM and a TGI of over 100 µM.
`O=C1c2ccccc2C(=O)C2NC(CCCCCSSCCCCCC3=NC4C(=O)c5ccccc5C(=O)C4N3)=NC12` (configuration not stated) was tested, and the TGI was over 100 µM.
With `CN(C)CCOc1ccc(/C(=C(/CCCCCCCCCC[P+](c2ccccc2)(c2ccccc2)c2ccccc2)c2ccccc2)c2ccccc2)cc1` the GI50 was 0.0304 µM and the TGI was 0.184 µM.

The compounds below were run on HCC-2998 colon (assay: DTP human tumour cell line panel, 48 h).
For `COc1ccc(C(=O)COc2cccc(/C=C3\COc4ccc5ccccc5c4C3=O)c2)cc1`, the GI50 was 23.5 µM and the TGI was over 100 µM.
`COc1cc2c(cc1C)NC(=O)/C2=C/c1cccnc1` was tested, and the TGI was 8.28 µM.
`NCCCC[C@@H]1NC(=O)[C@H]2CCCN2C(=O)[C@H](Cc2ccccc2)NC(=O)[C@H](Cc2ccccc2)CNC1=O` showed a GI50 of over 100 µM and a TGI of over 100 µM.

Each compound was assayed on NCI-H460 lung (assay: DTP human tumour cell line panel, 48 h).
`COc1ccc(C(=O)COc2cccc(/C=C3\COc4ccc5ccccc5c4C3=O)c2)cc1` gave a GI50 of 6.44 µM and a TGI of over 100 µM.
Work on `COc1cc2c(cc1C)NC(=O)/C2=C/c1cccnc1` yielded a TGI of 35.4 µM.
`NCCCC[C@@H]1NC(=O)[C@H]2CCCN2C(=O)[C@H](Cc2ccccc2)NC(=O)[C@H](Cc2ccccc2)CNC1=O` gave a GI50 of over 100 µM and a TGI of over 100 µM.
Work on `O=C1c2ccccc2C(=O)C2NC(CCCCCSSCCCCCC3=NC4C(=O)c5ccccc5C(=O)C4N3)=NC12` (configuration not stated) yielded a TGI of over 100 µM.

Each compound was assayed on COLO 205 colon (assay: DTP human tumour cell line panel, 48 h).
In the case of `COc1ccc(C(=O)COc2cccc(/C=C3\COc4ccc5ccccc5c4C3=O)c2)cc1`, the GI50 is reported as 16.9 µM and the TGI is reported as over 100 µM.
`COc1cc2c(cc1C)NC(=O)/C2=C/c1cccnc1` gave a TGI of over 47.9 µM.
With `NCCCC[C@@H]1NC(=O)[C@H]2CCCN2C(=O)[C@H](Cc2ccccc2)NC(=O)[C@H](Cc2ccccc2)CNC1=O` the GI50 was over 100 µM and the TGI was over 100 µM.

These compounds were tested on TK-10 renal (assay: DTP human tumour cell line panel, 48 h).
`COc1ccc(C(=O)COc2cccc(/C=C3\COc4ccc5ccccc5c4C3=O)c2)cc1` gave a GI50 of 24.2 µM and a TGI of over 100 µM.
For `COc1cc2c(cc1C)NC(=O)/C2=C/c1cccnc1`, the TGI was 31.1 µM.
Work on `NCCCC[C@@H]1NC(=O)[C@H]2CCCN2C(=O)[C@H](Cc2ccccc2)NC(=O)[C@H](Cc2ccccc2)CNC1=O` yielded a GI50 of over 100 µM and a TGI of over 100 µM.
`O=C1c2ccccc2C(=O)C2NC(CCCCCSSCCCCCC3=NC4C(=O)c5ccccc5C(=O)C4N3)=NC12` (configuration not stated) showed a TGI of over 100 µM.

The compounds below were run on SF-268 CNS (assay: DTP human tumour cell line panel, 48 h).
`COc1ccc(C(=O)COc2cccc(/C=C3\COc4ccc5ccccc5c4C3=O)c2)cc1` gave a GI50 of 7.83 µM and a TGI of over 100 µM.
Compound `COc1cc2c(cc1C)NC(=O)/C2=C/c1cccnc1` has a TGI of 41 µM.
Work on `NCCCC[C@@H]1NC(=O)[C@H]2CCCN2C(=O)[C@H](Cc2ccccc2)NC(=O)[C@H](Cc2ccccc2)CNC1=O` yielded a GI50 of over 100 µM and a TGI of over 100 µM.
With `O=C1c2ccccc2C(=O)C2NC(CCCCCSSCCCCCC3=NC4C(=O)c5ccccc5C(=O)C4N3)=NC12` (configuration not stated) the TGI was over 100 µM.

The compounds below were run on SF-295 CNS (assay: DTP human tumour cell line panel, 48 h).
`COc1ccc(C(=O)COc2cccc(/C=C3\COc4ccc5ccccc5c4C3=O)c2)cc1` gave a GI50 of 2870 nM and a TGI of 63.6 µM.
With `COc1cc2c(cc1C)NC(=O)/C2=C/c1cccnc1` the TGI was 40.5 µM.
